This note sets out measurements from patent US12624025B2, “Inhibitors of SARM1” (DISARM THERAPEUTICS, INC., priority 2019, dated 2026).

Where two headings read alike, the source gives them in different places.

The target of the assay is T1, SARM1 SAM-TIR (Homo sapiens, UniProt Q6SZW1).
T1 construct: a fragment of the SARM1 molecule encompassing the SAM and TIR domains; tandem Strep-tag II (WSHPQFEK twice, with Gly/Ser linkers); made in house; host or cells: NRK1-HEK293T cells (transient transfection; crude lysate supernatant used, not purified)
T1 sequence (Q6SZW1 409-724 limits assumed): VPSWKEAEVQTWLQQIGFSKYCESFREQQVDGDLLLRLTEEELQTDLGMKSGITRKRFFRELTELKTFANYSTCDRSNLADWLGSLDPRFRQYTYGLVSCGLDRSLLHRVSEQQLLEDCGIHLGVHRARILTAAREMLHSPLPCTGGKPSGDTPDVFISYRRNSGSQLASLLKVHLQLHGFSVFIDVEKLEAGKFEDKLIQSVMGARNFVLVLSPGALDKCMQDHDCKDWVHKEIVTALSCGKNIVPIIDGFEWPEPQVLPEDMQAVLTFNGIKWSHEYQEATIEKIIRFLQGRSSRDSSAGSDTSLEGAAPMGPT
The assay can be described thus: SAM-TIR SARM1 IC50 assay (NADase activity, NAD+ cleavage, RapidFire MS readout). The assay is classed as biochemical. The protocol:
This Example describes an assay of SAM-TIR NADase activity and use of this assay to measure the efficacy of compounds of Formula I to block SARM1 mediated NAD+ cleavage. This assay is optimized in such a way as to characterize the efficacy of the compounds in Formula I to inhibit SARM1 activity and to calculate an IC50 value for each compound. This assay makes use of a fragment of the SARM1 molecule encompassing the SAM and TIR domains.
NRK1-HEK293T cells were seeded onto 150 cm^2 plates at 20×10^6 cells per plate. The next day, the cells were transfected with 15 μg FCIV-SST (SAM-TIR expression plasmid, SEQ ID NO: 1) using X-TREMEGENE™ 9 DNA Transfection Reagent (Roche product #06365787001).
The cultures were supplemented with 1 mM NR at time of transfection to minimize toxicity from SAM-TIR overexpression. Forty-eight hours after transfection, cells were harvested, pelleted by centrifugation at 1,000 rpm (Sorvall ST 16R centrifuge, Thermo Fisher), and washed once with cold PBS (0.01 M phosphate buffered saline NaCl 0.138 M; KCl 0.0027 M; pH 7.4). The cells were resuspended in PBS with protease inhibitors (cOmplete™ protease inhibitor cocktail, Roche product #11873580001) and cell lysates were prepared by sonication (Branson Sonifer 450, output=3, 20 episodes of stroke). The lysates were centrifuged (12,000×g for 10 min at 4° C.) to remove cell debris and the supernatants (containing SARM1 SAM-TIR protein) were stored at −80° C. for later use in the in vitro SARM1 SAM-TIR NADase assay (see below). Protein concentration was determined by the Bicinchoninic (BCA) method and used to normalize lysate concentrations.
The enzymatic assay was performed in a 384-well polypropylene plate in Dulbecco's PBS buffer in a final assay volume of 20 μL. SAM-TIR lysate with a final concentration of 5 μg/mL was pre-incubated with the respective compound at 1% DMSO final assay concentration over 2 h at room temperature. The reaction was initiated by addition of 5 μM final assay concentration of NAD+ as substrate. After a 2 hr room temperature incubation, the reaction was terminated with 40 μL of stop solution of 7.5% trichloroactetic acid in acetonitrile. The NAD+ and ADPR concentrations were analyzed by a RapidFire High Throughput Mass Spectrometry System (Agilent Technologies, Santa Clara, CA) using an API4000 triple quadrupole mass spectrometer (AB Sciex Framingham, Mass.).

[1] abbreviates: SAM-TIR lysate 5 μg/mL, 2 h pre-incubation with compound, 5 μM NAD+, 2 hr room temperature, read-out: SARM1 IC50.

Turning to `N#Cc1c(Nc2c(Cl)ccc3ncccc23)sn(-c2ccn[nH]2)c1=O` [Example 13], under setting [1], the IC50 – broadly, the point on the concentration scale where inhibition reaches its midpoint – was less than 1 µM. The same measure, in the same setting: then `N#Cc1c(Nc2ccccc2C(F)(F)F)sn(C2CNCC23CC3)c1=O` (centres unmarked) [Example 24], with less than 1 µM; and `N#Cc1c(Nc2ccccc2C(F)(F)F)sn(-c2cccc3[nH]ncc23)c1=O` [Example 8], with less than 1 µM; and `N#Cc1c(Nc2ccccc2C(F)(F)F)sn(-c2cccc(C(N)=O)c2)c1=O` [Example 6], with less than 1 µM. Same read-out and setting: then `CS(=O)(=O)N1CC[C@@H](n2sc(Nc3c(Cl)ccc4ncccc34)c(C#N)c2=O)C1` [Example 30], with less than 1 µM; and `O=C(c1c(Nc2c(Cl)cccc2Cl)sn(-c2ccccc2)c1=O)N1CCOCC1` [Example 38], with less than 1 µM; and `CS(=O)(=O)N1CC[C@@H](n2sc(Nc3ccccc3C(F)(F)F)c(C#N)c2=O)C1` [Example 12], with less than 1 µM. Same read-out and setting: to `CN1CCC(n2sc(Nc3c(Cl)ccc4ncccc34)c(C#N)c2=O)CC1` [Example 1] belongs less than 1 µM.

For `CS(=O)(=O)N1CC[C@H](n2sc(Nc3ccccc3C(F)(F)F)c(C#N)c2=O)C1` [Example 7], the half-inhibitory concentration (IC50) under setting [1] was less than 1 µM. The same measure, in the same setting: to `COCCN(C)C(=O)c1c(Nc2ccccc2C(F)(F)F)sn(-c2ccccc2)c1=O` [Example 35] belongs less than 1 µM. The same measure, in the same setting: to `N#Cc1c(Nc2ccccc2C(F)(F)F)sn([C@@H]2CNCC23CC3)c1=O` [Example 27] belongs less than 1 µM; to `C[C@@H]1CN(S(C)(=O)=O)C[C@H]1n1sc(Nc2c(Cl)ccc3ncccc23)c(C#N)c1=O` [Example 28], less than 1 µM. Same read-out and setting: to `N#Cc1c(Nc2c(Cl)ccc3ncccc23)sn([C@@H]2CCNC2)c1=O` [Example 32] belongs less than 1 µM. Consider `N#Cc1c(Nc2c(Cl)ccc3ncccc23)sn(C2CCNCC2)c1=O` [Example 16], for which the IC50 under setting [1] is less than 1 µM. On the same count and under the same terms, then `N#Cc1c(Nc2c(Cl)cccc2Cl)sn(-c2ccc(-n3cccn3)cc2)c1=O` [Example 50], with less than 1 µM; and `C[C@H]1CNCC[C@H]1n1sc(Nc2c(Cl)ccc3ncccc23)c(C#N)c1=O` [Example 43], with less than 1 µM. Still for that read-out and setting: to `N#Cc1c(Nc2ccccc2C(F)(F)F)sn(-c2ccc3c(c2)OCCO3)c1=O` [Example 52] belongs less than 1 µM. On the same count and under the same terms, then `N#Cc1c(Nc2c(Cl)ccc3ncccc23)sn(C2C3CCC2CNC3)c1=O` (centres unmarked) [Example 37], with less than 1 µM; and `N#Cc1c(Nc2ccccc2C(F)(F)F)sn(C2CCNCC2)c1=O` [Example 19], with less than 1 µM.

`N#Cc1c(Nc2ccccc2C(F)(F)F)sn(-c2ccc(-n3cccn3)cc2)c1=O` [Example 51]: under setting [1], the IC50 was less than 1 µM.

Consider `N#Cc1c(Nc2ccccc2C(F)(F)F)sn([C@@H]2CCN(C(N)=O)C2)c1=O` [Example 10], for which the half-maximal inhibitory concentration (IC50) under setting [1] was less than 1 µM. On the same count and under the same terms, to `N#Cc1c(Nc2c(Cl)ccc3ncccc23)sn([C@H]2CCNC2)c1=O` [Example 48] belongs more than 5 µM; to `N#Cc1c(Nc2ccccc2C(F)(F)F)sn(-c2ccc3cn[nH]c3c2)c1=O` [Example 53], less than 1 µM; to `CN1CC[C@@H](n2sc(Nc3c(Cl)ccc4ncccc34)c(C#N)c2=O)C1` [Example 33], less than 1 µM.

Turning to `N#Cc1c(Nc2ccccc2C(F)(F)F)sn(-c2cccc(-c3cnco3)c2)c1=O` [Example 18], the half-inhibitory concentration (IC50) under setting [1] was less than 1 µM. Same read-out and setting: then `N#Cc1c(Nc2ccccc2C(F)(F)F)sn([C@@H]2CCNC2)c1=O` [Example 21], with less than 1 µM. On the same count and under the same terms, then `C[C@@H]1CNC[C@H]1n1sc(Nc2c(Cl)ccc3ncccc23)c(C#N)c1=O` [Example 44], with less than 1 µM. The same measure, in the same setting: then `CC(=O)N1CC[C@@H](n2sc(Nc3ccccc3C(F)(F)F)c(C#N)c2=O)C1` [Example 15], with less than 1 µM; and `N#Cc1c(Nc2cccc3ncccc23)sn(-c2ccc3c(c2)OCCO3)c1=O` [Example 25], with less than 1 µM; and `N#Cc1c(Nc2ccccc2C(F)(F)F)sn([C@H]2CCN(C(N)=O)C2)c1=O` [Example 9], with less than 1 µM.

For `Cc1cnn(C)c1-n1sc(Nc2c(Cl)ccc3ncccc23)c(C#N)c1=O` [Example 47], the IC50 under setting [1] lay in the range of 1 to 5 µM. The same measure, in the same setting: then `CN1C[C@H](n2sc(Nc3c(Cl)ccc4ncccc34)c(C#N)c2=O)C2(CC2)C1` [Example 36], with less than 1 µM; and `CS(=O)(=O)N1CC2CCC(C1)C2n1sc(Nc2c(Cl)ccc3ncccc23)c(C#N)c1=O` (centres unmarked) [Example 34], with less than 1 µM. Same read-out and setting: to `O=C(c1c(Nc2ccccc2C(F)(F)F)sn(-c2ccccc2)c1=O)N1CCOCC1` [Example 39] belongs less than 1 µM; to `COc1cccc(OC)c1Nc1sn([C@@H]2CCNC2)c(=O)c1C(=O)N1CCOCC1` [Example 46], less than 1 µM. The same measure, in the same setting: then `CN1C[C@@H](n2sc(Nc3c(Cl)ccc4ncccc34)c(C#N)c2=O)C2(CC2)C1` [Example 41], with less than 1 µM; and `CS(=O)(=O)N1CC2CCC1C2n1sc(Nc2c(Cl)ccc3ncccc23)c(C#N)c1=O` (centres unmarked) [Example 42], with less than 1 µM. Regarding `N#Cc1c(Nc2ccccc2C(F)(F)F)sn(-c2ccc3[nH]ncc3c2)c1=O` [Example 11], the IC50 under setting [1] is less than 1 µM.

For `N#Cc1c(Nc2ccccc2C(F)(F)F)sn(C2CCN(C(N)=O)CC2)c1=O` [Example 14], under setting [1], the 50% inhibitory concentration (IC50) was less than 1 µM. On to `CS(=O)(=O)N1C2CCC1C(n1sc(Nc3c(Cl)ccc4ncccc34)c(C#N)c1=O)C2` (centres unmarked) [Example 26], for which the IC50 was less than 1 µM. With `C[C@@H]1CNC[C@@H]1n1sc(Nc2ccccc2C(F)(F)F)c(C#N)c1=O` [Example 3], under setting [1], the IC50 was less than 1 µM. Still for that read-out and setting: then `N#Cc1c(Nc2ccccc2C(F)(F)F)sn([C@H]2CCNC2)c1=O` [Example 5], with less than 1 µM; and `CC(=O)N1CC[C@H](n2sc(Nc3ccccc3C(F)(F)F)c(C#N)c2=O)C1` [Example 23], with less than 1 µM; and `CC(C)(C)OC(=O)n1ncc2cc(-n3sc(Nc4ccccc4C(F)(F)F)c(C#N)c3=O)ccc21` [Example 29], with less than 1 µM. For the compound `CC(=O)N1CCC(n2sc(Nc3ccccc3C(F)(F)F)c(C#N)c2=O)CC1` [Example 2], under setting [1], the half-inhibitory concentration (IC50) is less than 1 µM. The same measure, in the same setting: then `CS(=O)(=O)N1CCC(n2sc(Nc3ccccc3C(F)(F)F)c(C#N)c2=O)CC1` [Example 20], with less than 1 µM.

With `CS(=O)(=O)N1CC[C@H](n2sc(Nc3c(Cl)ccc4ncccc34)c(C#N)c2=O)C1` [Example 22], the IC50 under setting [1] is less than 1 µM. On the same count and under the same terms, to `N#Cc1c(Nc2ccccc2C(F)(F)F)sn(C2CCOCC2)c1=O` [Example 31] belongs less than 1 µM; to `CN(c1ccccc1C(F)(F)F)c1sn([C@@H]2CNCC23CC3)c(=O)c1C#N` [Example 49], more than 5 µM. On the same count and under the same terms, then `N#Cc1c(Nc2ccccc2C(F)(F)F)sn(-c2ccccc2)c1=O` [Example 4], with less than 1 µM.
